Legend:
Test in all cases: Recombinant chromosome experiments: parents raised on supplement, progeny on normal food, adults by sex (25, 18 or 29° C.)
Assay type in all cases: in vivo, Drosophila melanogaster
[1] = tested on: Hsp26 tTa, tRe Msl-2^Nopu on the 2nd chromosome
Method: (§1) 40-45 young females and 20-25 young males raised at 25° C. upon food with the indicated tetracycline supplement were allowed to mate, then transferred to normal (tetracycline-free) food after 3-4 days. These flies were transferred to fresh vials of normal food every day for 12 days, then removed on the 13th day. All the vials were incubated at 25° C. while the progeny developed. The numbers of male and female progeny emerging as adults in each vial were recorded.
(§2) A standard range of additive concentrations were used in the following experiments (0.05-20 μg/ml). […] (=“not done”)
(§3) All the preceding experiments were performed at 25° C., the standard temperature for Drosophila culture. However, the insects in the wild would clearly be exposed to varying temperatures, so we investigated the extent to which the efficiency of the system is affected by temperature. As with the recombinant chromosome experiments, 40-45 young virgin females and 20-25 young males raised at 25° C. upon food with the indicated tetracycline supplement were allowed to mate, then transferred to normal (tetracycline-free) food after 3-4 days. These flies were transferred to fresh vials of normal food every day. The numbers of male and female progeny emerging as adults in each vial were recorded. These experiments were performed at either 18° C. or 29° C.

[2] = tested on: Sxl^pe-tTA, tRE-Ras64B^V12 on the X chromosome; conditions: for Female progeny / Male progeny: 18° C., then tetracycline-free food; for Female progeny per daily vial / Female progeny Total / Male progeny Total: 25° C.; for Female progeny per daily vial: Day 1-12 on tetracycline-free food; for Female progeny Total / Male progeny Total: Day 1-12 total; for Female progeny emerging as adults / Male progeny emerging as adults: 29° C.
Method: as §1, §2, §3

[3] = tested on: Hsp26 tTa, tRe Msl-1^Mpu on the 2nd chromosome
Method: as §1, §2, §3

[4] = tested on: Yp3 tTa, tRe Msl-2^Nopu on the 2nd chromosome
Method: as §1, §2, §3

[5] = tested on: Sxl^pe-tTA, tRE-Msl-2^Nopu on the X chromosome; conditions: for Female progeny per daily vial / Female progeny Total / Male progeny Total: 25° C.; for Female progeny per daily vial: Day 1-12 on tetracycline-free food; for Female progeny Total / Male progeny Total: Day 1-12 total
Method: as §1, §2, §3

[6] = tested on: Sxlp^e tTa, tRe Msl-1^Mpu on the X chromosome
Method: as §1, §2, §3

[7] = parents raised on tetracycline 0.1 μg/ml, 18° C.
[8] = parents raised on tetracycline 0.1 μg/ml, 29° C.
[9] = parents raised on tetracycline 1 μg/ml, 18° C.
[10] = parents raised on tetracycline 1 μg/ml, 29° C.
[11] = parents raised on tetracycline 5 μg/ml, 18° C.
[12] = parents raised on tetracycline 5 μg/ml, 29° C.
[13] = parents raised on Tetracycline 0.1 μg/ml
[14] = parents raised on Tetracycline 1 μg/ml
[15] = parents raised on Tetracycline 5 μg/ml
[16] = parents raised on Tet. 0.1 μg/ml
[17] = parents raised on Tet. 20 μg/ml
[18] = parents raised on Tet. 100 μg/ml
[19] = parents raised on Tet. 500 μg/ml
[20] = parents raised on Tet. 1000 μg/ml
[21] = parents raised on Tet. 2000 μg/ml
[22] = parents raised on tetracycline 0.1 μg/ml
[23] = parents raised on tetracycline 1 μg/ml
[24] = parents raised on tetracycline 5 μg/ml

## CN(C)[C@@H]1C(O)=C(C(N)=O)C(=O)[C@@]2(O)C(O)=C3C(=O)c4c(O)cccc4[C@@](C)(O)[C@H]3C[C@@H]12 [Tetracycline, tetracycline]
[1]; [7]
  Female progeny emerging as adults: 8
  Male progeny emerging as adults: 832
[1]; [8]
  Female progeny emerging as adults: 0
  Male progeny emerging as adults: 696
[1]; [9]
  Female progeny emerging as adults: 7
  Male progeny emerging as adults: 879
[1]; [10]
  Female progeny emerging as adults: 0
  Male progeny emerging as adults: 658
[1]; [11]
  Female progeny emerging as adults: 4
  Male progeny emerging as adults: 818
[1]; [12]
  Female progeny emerging as adults: 0
  Male progeny emerging as adults: 711
[2]; [13]
  Female progeny: 8
  Male progeny: 982
[2]; [14]
  Female progeny: 10
  Male progeny: 912
[2]; [15]
  Female progeny: 7
  Male progeny: 871
[2]; [16]
  Female progeny per daily vial: 0
  Female progeny Total: 0
  Male progeny Total: 1262
[2]; parents raised on Tet. 1 μg/ml
  Female progeny per daily vial: 0
  Female progeny Total: 0
  Male progeny Total: 1399
[2]; parents raised on Tet. 5 μg/ml
  Female progeny per daily vial: 0
  Female progeny Total: 0
  Male progeny Total: 1359
[2]; [17]
  Female progeny per daily vial: 0
  Female progeny Total: 0
  Male progeny Total: 1398
[2]; [18]
  Female progeny per daily vial: 0
  Female progeny Total: 0
  Male progeny Total: 1469
[2]; [19]
  Female progeny Total: 25
  Male progeny Total: 1478
[2]; [20]
  Female progeny Total: 49
  Male progeny Total: 1349
[2]; [21]
  Female progeny Total: 92
  Male progeny Total: 1439
[2]; [22]
  Female progeny emerging as adults: 0
  Male progeny emerging as adults: 716
[2]; [23]
  Female progeny emerging as adults: 0
  Male progeny emerging as adults: 711
[2]; [24]
  Female progeny emerging as adults: 0
  Male progeny emerging as adults: 715
[3]; [7]
  Female progeny emerging as adults: 6
  Male progeny emerging as adults: 628
[3]; [8]
  Female progeny emerging as adults: 0
  Male progeny emerging as adults: 733
[3]; [9]
  Female progeny emerging as adults: 3
  Male progeny emerging as adults: 614
[3]; [10]
  Female progeny emerging as adults: 0
  Male progeny emerging as adults: 776
[3]; [11]
  Female progeny emerging as adults: 5
  Male progeny emerging as adults: 712
[3]; [12]
  Female progeny emerging as adults: 0
  Male progeny emerging as adults: 728
[4]; [7]
  Female progeny emerging as adults: 8
  Male progeny emerging as adults: 1152
[4]; [8]
  Female progeny emerging as adults: 0
  Male progeny emerging as adults: 765
[4]; [9]
  Female progeny emerging as adults: 12
  Male progeny emerging as adults: 1122
[4]; [10]
  Female progeny emerging as adults: 0
  Male progeny emerging as adults: 702
[4]; [11]
  Female progeny emerging as adults: 3
  Male progeny emerging as adults: 1225
[4]; [12]
  Female progeny emerging as adults: 0
  Male progeny emerging as adults: 773
[5]; [16]
  Female progeny per daily vial: 0
  Female progeny Total: 0
  Male progeny Total: 1464
[5]; parents raised on Tet. 1 μg/ml
  Female progeny per daily vial: 0
  Female progeny Total: 0
  Male progeny Total: 1527
[5]; parents raised on Tet. 5 μg/ml
  Female progeny per daily vial: 0
  Female progeny Total: 0
  Male progeny Total: 1535
[5]; [17]
  Female progeny per daily vial: 0
  Female progeny Total: 0
  Male progeny Total: 1243
[5]; [18]
  Female progeny per daily vial: 0
  Female progeny Total: 0
  Male progeny Total: 1483
[5]; [19]
  Female progeny Total: 2
  Male progeny Total: 1625
[5]; [20]
  Female progeny Total: 29
  Male progeny Total: 1402
[5]; [21]
  Female progeny Total: 44
  Male progeny Total: 1543
[5]; [7]
  Female progeny emerging as adults: 6
  Male progeny emerging as adults: 695
[5]; [8]
  Female progeny emerging as adults: 0
  Male progeny emerging as adults: 682
[5]; [9]
  Female progeny emerging as adults: 8
  Male progeny emerging as adults: 816
[5]; [10]
  Female progeny emerging as adults: 0
  Male progeny emerging as adults: 804
[5]; [11]
  Female progeny emerging as adults: 8
  Male progeny emerging as adults: 785
[5]; [12]
  Female progeny emerging as adults: 0
  Male progeny emerging as adults: 648
[6]; [7]
  Female progeny emerging as adults: 8
  Male progeny emerging as adults: 840
[6]; [8]
  Female progeny emerging as adults: 0
  Male progeny emerging as adults: 732
[6]; [9]
  Female progeny emerging as adults: 5
  Male progeny emerging as adults: 927
[6]; [10]
  Female progeny emerging as adults: 0
  Male progeny emerging as adults: 771
[6]; [11]
  Female progeny emerging as adults: 8
  Male progeny emerging as adults: 837
[6]; [12]
  Female progeny emerging as adults: 0
  Male progeny emerging as adults: 816

Source: patent US9125388B2, “Biological control” (Isis Innovation Limited, priority 1999, dated 2015)
